Test results published in patent US9707184B2, “Immediate release abuse deterrent liquid fill dosage form” (priority 2014, dated 2017).

Experiment: Solubility of the formulation components in water and alcohol
Assay type: physicochemical
Settings: 200 proof ethanol, filtered through a 0.45 micrometer PTFE filter
Text: Dyes can also be used and chosen to be soluble in both water and alcohol to produce a dark colored solution upon extraction and filtering as a visual deterrent to abuse. The formulation can include the following components listed in the Table 8 below, including a number of different dyes.

Row | Compound | Alcohol Solubility (Tested)
1 | COc1ccc2c3c1O[C@H]1C(=O)CC[C@@]4(O)[C@@H](C2)N(C)CC[C@]314.Cl [Oxycodone HCl, reference compound] | Yes
2 | COc1cc(S(=O)(=O)[O-])c(C)cc1N=Nc1c(O)ccc2cc(S(=O)(=O)[O-])ccc12.[Na+].[Na+] [FD&C Red #40] | Yes
3 | CCN(Cc1cccc(S(=O)(=O)[O-])c1)c1ccc(C(=C2C=CC(=[N+](CC)Cc3cccc(S(=O)(=O)[O-])c3)C=C2)c2ccccc2S(=O)(=O)[O-])cc1.[Na+].[Na+] [FD&C Blue #1] | Yes
